The text below walks through data of US7071158B2, “Antioxidant enhancement of therapy for hyperproliferative conditions” (Atherogenics, Inc., priority 1997, dated 2006).

By LD50 is commonly meant the dose at which mortality reaches 50%.

The test system of one data set is rats. Conditions: intravenously; cited from earlier work.
Another data set deals with HCT 15 cells. The experiment in a line: Apoptotic index (TUNEL) with or without induced C/EBPβ overexpression. It is filed as cell-based, human. The conditions noted are these: 5-FU 1.5 μM or doxorubicin 0.1 μM, 24 hours. How it is done: Control HCT 15 cells and the sense C/EBPβ cell line were induced with 10 μM muristerone A and exposed to either 5-FU (1.5 μM) or doxorubicin (0.1 μM) for 24 hours. The apoptotic index was calculated as described in FIG. 4C.
Finally, the functional role of C/EBPβ was examined in the apoptotic signaling pathway by generating lines of HCT 15 cells that were stably transfected with the human C/EBPβ cDNA, in both the sense and antisense orientation, under the control of an ecdysone inducible promoter. To avoid the possibility that constitutively expressed C/EBPβ might induce cell death, and ecdysone (muristerone A)-inducible expression system (Invitrogen, Carlsbad, Calif.) was used. Human C/EBPβ cDNA was subcloned into pIND at convenient enzyme cleavage ites. Constructs, containing sense and antisense C/EBPβ sequences were verified by double-stranded DNA sequencing. Before transfection, pIND-C/EBPβ constructs were linearized with Pme I and purified. HCT 15 cells were transfected with 5 μg of pVgRXR (Invitrogen) and 10 μg of pIND-C/EBPβ using CELLFECTIN according to manufacture's instructions. After 24 hours, cells were shifted to medium supplemented with 1 mg/ml Geneticin and […] puromycin (GIBCO BRL) to select for transfectant clones. After 2 weeks, antibiotic-resistant cells were subcloned by limiting dilution. The expression of C/EBPβ protein and the subsequent induction of p21^WAF1/CIP1 was determined following induction with 10 μM muristerone A for 24 hours and Western blot analysis.

The next data set relates to PP2A. The experiment in a line: Dephosphorylation of radiolabeled C/EBPβ in DKO-1 lysates. It is filed as biochemical, human. Conditions: DKO-1 cell lysates (cells treated with 17 μM PDTC for three hours), ten minutes at 37 degrees C. As for the experimental part:
FIG. 13 is a graph of time in hours versus percent radioactivity remaining on the protein substrate. […] The activity of PDTC is compared to I2 (a selective PP1 inhibitor), okadaic acid (an inhibitor of both PP2A and PP1), I2 and PDTC, and okadaic acid and PDTC. DKO-1 cells were grown in the presence of PDTC (test) or not (control). The cells were lysed, and then radioactive phosphorylated C/EBPβ was added. The test compounds were then added, and incubated with the lysate. The protein was collected and the amount of radioactive phosphate remaining in the protein measured.
Cell lysates were prepared and treated with the following reagents in the presence of phosphorylated C/EBPβ in which the phosphate is radiolabeled, for ten minutes at 37 degrees C: I2 (a selective PP1 inhibitor), okadaic acid (a selective inhibitor of PP2A and PP1), PDTC, I2 and PDTC, and okadaic acid and PDTC. […] This effect is reversible following removal of the antioxidant.

Turning to `CC(=O)N[C@@H](CS)C(=O)O` [N-acetylcysteine, acetamido-mercaptopropionic acid], the LD50 in the data set on rats is 1140 mg/kg.
As for `COc1cccc2c1C(=O)c1c(O)c3c(c(O)c1C2=O)C[C@@](O)(C(=O)CO)C[C@@H]3O[C@H]1C[C@H](N)[C@H](O)[C@H](C)O1` [doxorubicin], the apoptotic index in the data set with HCT 15 cells (HCT 15 cells induced to overexpress C/EBPβ) is listed as 80%; in the data set with HCT 15 cells (HCT 15 cells, absence of C/EBPβ overexpression), “did not induce apoptosis”.
For `C=C1[C@@H](O)[C@@H]2O[C@]3(CC[C@H](/C=C/[C@@H](C)[C@@H]4CC(C)=C[C@@]5(O[C@H](C[C@@](C)(O)C(=O)O)CC[C@H]5O)O4)O3)CC[C@H]2O[C@@H]1[C@@H](O)C[C@H](C)[C@H]1O[C@@]2(CCCCO2)CC[C@H]1C` [okadaic acid, reference compound], the “phosphatase activity toward phosphorylated C/EBPβ” value in the data set on PP2A is “inhibited all DKO-1 phosphatase activity”.

B1: I2: a selective PP1 inhibitor (protein, UniProt P41236 2-205, looked up)
Protein phosphatase inhibitor …: AASTASHRPIKGILKNKTSTTSSMVASAEQPRGNVDEELSKKSQKWDEMNILATYHPADKDYGLMKIDEPSTPYHSMMGDDEDACSDTEATEAMAPDILARKLAAAEGLEPKYRIQEQESSGEEDSDLSPEEREKKRQFEMKRKLHYNEGLNIKLARQLISKDLHDDDEDEEMLETADGESMNTEESNQGSTPSDQQQNKLRSS
As to B1, the “phosphatase activity toward phosphorylated C/EBPβ” value in the data set with PP2A is “failed to protect C/EBPβ from dephosphorylation”.
